Results on four molecules are retold here after PMC4374918, “Interaction of ATP with a Small Heat Shock Protein from Mycobacterium leprae: Effect on Its Structure and Function” (PLoS Neglected Tropical Diseases, 2015).

The target in series [1] is T1, HSP18 (Mycobacterium leprae, UniProt P12809).
T1 construct: recombinant wild-type M. leprae HSP18
In words: SPR (Biacore T200, HSP18 immobilized on CM5 chip). It is filed as binding.

Series [2] has as its target T1, HSP18. In words: SPR (Biacore T200, HSP18 immobilized on CM5 chip); also TNP-ATP displacement and thermal stabilization. It is filed as binding.
Series [3] concerns the target T1, HSP18. Nature of the series: fluorescence titration, Scatchard analysis. It is filed as binding.
Series [4] concerns the molecule itself. Nature of the series: dynamic light scattering; HSP18 0.5 mg/ml in 50 mM phosphate buffer pH 7.5, 25°C, with or without 1 mM ATP; hydrodynamic radius of the oligomers.

Turning to `Nc1ncnc2c1ncn2[C@@H]1O[C@H](CO[P@](=O)(O)O[P@](=O)(O)O[P@@](=O)(O)S)[C@@H](O)[C@H]1O` [ATP-γS], on HSP18 [1], the affinity, expressed as Kd, was 330 nM.
For `Nc1ncnc2c1ncn2[C@@H]1O[C@H](COP(=O)(O)OP(=O)(O)OP(=O)(O)O)[C@@H](O)[C@H]1O` [ATP], the dissociation constant (Kd) (commonly the equilibrium constant for the complex coming apart) at HSP18 [2] was determined as 590 nM. This lies in the sub-micromolar range.
`Nc1ncnc2c1ncn2[C@@H]1O[C@H](COP(=O)(O)OP(=O)(O)OP(=O)(O)O)[C@H]2OC3(O[C@H]21)C([N+](=O)[O-])=CC(=[N+]([O-])[O-])C=C3[N+](=O)[O-]` (stereo partly shown) [TNP-ATP] displayed a Kd at HSP18 [3] of 730 nM.

B1: Mycobacterium leprae HSP18 (18 kDa antigen, small heat shock protein) (natural protein, UniProt P12809 1-148, looked up)
chain: MLMRTDPFRELDRFAEQVLGTSARPAVMPMDAWREGEEFVVEFDLPGIKADSLDIDIERNVVTVRAERPGVDPDREMLAAERPRGVFNRQLVLGENLDTERILASYQEGVLKLSIPVAERAKPRKISVDRGNNGHQTINKTAHEIIDA
notes: M. leprae HSP18 (18 kDa antigen), wild-type; source: recombinant wild-type, expressed and purified as described previously [5]; copies: 29
Turning to B1, the binding result in series [4] is reported as “binds”.
